Biological target: Prothrombin (Homo sapiens, UniProt P00734)
Test: Enzyme Inhibition Assay
Description: (§1) The enzyme activities were determined kinetically as the initial rate of cleavage of a peptide p-nitroanilide. Km for enzyme and substrate was determined using four substrate dilutions. Enzyme was incubated with test compounds for 10 min; the reaction was then started by the addition of the substrate. […] IC50 values for inhibitors were determined from the dose response curve by fitting the data to the Hill equation. Ki,app values were calculated as the IC50/2, with the IC50 value determined at a substrate concentration equal to Km

Question: Cc1ccc(NC(=O)c2sc3ccccc3c2Cl)c(C(=O)Nc2ccc(Cl)cc2)c1 [3-chloro-N-{2-[(4-chlorophenyl)carbamoyl]-4-methylphenyl}-1-benzothiophene-2-carboxamide] was tested. Which Ki did it give?
Answer: The Ki was > 5 µM.

Question: Which Ki does the source give for CCCN1Cc2sc(C(=O)Nc3ccc(Cl)cc3C(=O)Nc3ccc(Cl)cc3)c(Cl)c2C1 [3-chloro-N-{4-chloro-2-[(4-chlorophenyl)carbamoyl]phenyl}-5-propyl-4H,5H,6H-thieno[2,3-c]pyrrole-2-carboxamide] here?
Answer: Its Ki is 3.2 µM.

Biological target: Coagulation factor X (Homo sapiens, UniProt P00742)
Sequence (P00742 41-179 limits assumed): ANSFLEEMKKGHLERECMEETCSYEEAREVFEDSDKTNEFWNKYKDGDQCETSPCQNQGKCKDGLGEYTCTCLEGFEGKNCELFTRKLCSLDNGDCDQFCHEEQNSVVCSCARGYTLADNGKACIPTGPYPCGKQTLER
Sequence (P00742 235-488 limits assumed): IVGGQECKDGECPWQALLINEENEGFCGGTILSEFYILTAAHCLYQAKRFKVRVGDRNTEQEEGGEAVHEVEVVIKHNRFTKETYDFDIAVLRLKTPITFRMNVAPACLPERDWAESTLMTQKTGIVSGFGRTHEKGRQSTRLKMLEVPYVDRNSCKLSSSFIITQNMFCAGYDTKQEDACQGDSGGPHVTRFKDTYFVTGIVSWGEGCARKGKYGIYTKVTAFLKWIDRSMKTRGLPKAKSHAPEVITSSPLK
Test: Enzyme Inhibition Assay
Description: as §1

Question: CCCN1Cc2sc(C(=O)Nc3ccc(Cl)cc3C(=O)Nc3ccc(Cl)cc3)c(Cl)c2C1 [3-chloro-N-{4-chloro-2-[(4-chlorophenyl)carbamoyl]phenyl}-5-propyl-4H,5H,6H-thieno[2,3-c]pyrrole-2-carboxamide] was tested. Which Ki did it give?
Answer: The Ki was 0.0022 µM.

Biological target: T1, Serine protease 1 (Bos taurus, UniProt P00760)
T1 sequence (P00760 whole entry): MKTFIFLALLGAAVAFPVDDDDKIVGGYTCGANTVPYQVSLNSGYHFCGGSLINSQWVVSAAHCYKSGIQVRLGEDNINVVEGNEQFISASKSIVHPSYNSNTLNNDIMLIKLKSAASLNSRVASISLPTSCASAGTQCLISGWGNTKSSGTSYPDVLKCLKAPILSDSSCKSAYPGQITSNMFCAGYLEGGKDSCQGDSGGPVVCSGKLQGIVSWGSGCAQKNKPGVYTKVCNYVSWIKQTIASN
Test: Enzyme Inhibition Assay
Description: as §1

Question: With Cc1ccc(NC(=O)c2sc3ccccc3c2Cl)c(C(=O)Nc2ccc(Cl)cc2)c1 [3-chloro-N-{2-[(4-chlorophenyl)carbamoyl]-4-methylphenyl}-1-benzothiophene-2-carboxamide] as the molecule, how does the Ki read?
Answer: Its Ki is > 5 µM.

Question: How did the Ki turn out when COCCOCCOCc1csc(C(=O)Nc2ccc(Cl)cc2C(=O)Nc2ccc(Cl)cc2)c1Cl [3-chloro-N-{4-chloro-2-[(4-chlorophenyl)carbamoyl]phenyl}-4-{[2-(2-methoxyethoxy)ethoxy]methyl}thiophene-2-carboxamide] was run?
Answer: The Ki was > 5 µM.

Question: For CC1(C)OCC(COCc2csc(C(=O)Nc3ccc(Cl)cc3C(=O)Nc3ccc(Cl)cc3)c2Cl)O1 (stereo unspecified) [3-chloro-N-{4-chloro-2-[(4-chlorophenyl)carbamoyl]phenyl}-4-{[(2,2-dimethyl-1,3-dioxolan-4-yl)methoxy]methyl}thiophene-2-carboxamide], which Ki is on record?
Answer: The Ki was > 5 µM.

Question: CN(Cc1csc(C(=O)Nc2ccc(Cl)cc2C(=O)Nc2ccc(Cl)cc2)c1Cl)CC(O)CO (stereo unspecified) [3-chloro-N-{4-chloro-2-[(4-chlorophenyl)carbamoyl]phenyl}-4-{[(2,3-dihydroxypropyl)(methyl)amino]methyl}thiophene-2-carboxamide] was tested. Which Ki did it give?
Answer: The Ki was > 5 µM.

Question: With CN(CCO)Cc1csc(C(=O)Nc2ccc(Cl)cc2C(=O)Nc2ccc(Cl)cc2)c1Cl [3-chloro-N-{4-chloro-2-[(4-chlorophenyl)carbamoyl]phenyl}-4-{[(2-hydroxyethyl)(methyl)amino]methyl}thiophene-2-carboxamide] as the molecule, how does the Ki read?
Answer: The Ki was > 5 µM.

Question: Which Ki does the source give for O=C(Nc1ccc(Cl)cc1)c1cc(Cl)ccc1NC(=O)c1sc(CN2CCOCC2)cc1Cl [3-chloro-N-{4-chloro-2-[(4-chlorophenyl)carbamoyl]phenyl}-5-(morpholin-4-ylmethyl)thiophene-2-carboxamide] here?
Answer: The Ki was > 5 µM.

Question: CN1CCN(Cc2cc(Cl)c(C(=O)Nc3ccc(Cl)cc3C(=O)Nc3ccc(Cl)cc3)s2)CC1 [3-chloro-N-{4-chloro-2-[(4-chlorophenyl)carbamoyl]phenyl}-5-[(4-methylpiperazin-1-yl)methyl]thiophene-2-carboxamide] was tested. Which Ki did it give?
Answer: Its Ki is > 5 µM.

Question: Which Ki does the source give for CN1CCN(Cc2ccc3c(Cl)c(C(=O)Nc4ccc(Cl)cc4C(=O)Nc4ccc(Cl)cc4)sc3c2)CC1 [3-chloro-N-{4-chloro-2-[(4-chlorophenyl)carbamoyl]phenyl}-6-[(4-methylpiperazin-1-yl)methyl]-1-benzothiophene-2-carboxamide] here?
Answer: Its Ki is > 5 µM.

Question: For CN(C)Cc1ccc2c(Cl)c(C(=O)Nc3ccc(Cl)cc3C(=O)Nc3ccc(Cl)cc3)sc2c1 [3-chloro-N-{4-chloro-2-[(4-chlorophenyl)carbamoyl]phenyl}-6-[(dimethylamino)methyl]-1-benzothiophene-2-carboxamide], which Ki is on record?
Answer: Its Ki is > 5 µM.

Question: How did the Ki turn out when CN1CCN(Cc2c(C(=O)Nc3ccc(Cl)cc3C(=O)Nc3ccc(Cl)cc3)sc3ccccc23)CC1 [N-{4-chloro-2-[(4-chlorophenyl)carbamoyl]phenyl}-3-[(4-methylpiperazin-1-yl)methyl]-1-benzothiophene-2-carboxamide] was run?
Answer: Its Ki is > 5 µM.

Question: Which Ki does the source give for CN(C)Cc1c(C(=O)Nc2ccc(Cl)cc2C(=O)Nc2ccc(Cl)cc2)sc2ccccc12 [N-{4-chloro-2-[(4-chlorophenyl)carbamoyl]phenyl}-3-[(dimethylamino)methyl]-1-benzothiophene-2-carboxamide] here?
Answer: Its Ki is > 5 µM.

Question: With CCOC(=O)CN(C)Cc1csc(C(=O)Nc2ccc(Cl)cc2C(=O)Nc2ccc(Cl)cc2)c1Cl [ethyl 2-({[4-chloro-5-({4-chloro-2-[(4-chlorophenyl)carbamoyl]phenyl}carbamoyl)thiophen-3-yl]methyl}(methyl)amino)acetate] as the molecule, how does the Ki read?
Answer: Its Ki is > 5 µM.

Question: CN1CCN(Cc2csc(C(=O)Nc3ccc(Cl)cc3C(=O)Nc3ccc(Cl)cc3)c2Cl)CC1 [thiophene-containing non-amidine inhibitor, 31] was tested. Which Ki did it give?
Answer: Its Ki is > 5 µM.

Source: BindingDB's records for doi:10.1016/j.bmc.2006.12.019 (Berlex, 2007)
